Values joined by “and” are separate entries in the source; they are usually repeats but may differ in a detail not shown here. Identical values can stand only once. Like-named read-outs stand apart in the source and are kept apart here.
Columns and labels:
[1] = format: in vivo, human; conditions: for A2 coefficient, breath elimination model / A1 coefficient, breath elimination model / Breath, 1st compartment half-life, elimination / Breath, 2nd compartment half-life, elimination / Breath, 3rd compartment half-life, elimination: elimination period after 100 ppmv 4 hr inhalation; for Breath model value at t = 0: elimination model; for Breath model value at t = 0 / Breath model value at t = 240: end of 100 ppmv 4 hr inhalation; for Breath model value at t = 240: uptake model; for Breath, 1st compartment half-life, uptake / k1 time constant, breath uptake model: uptake period, 100 ppmv 4 hr inhalation
[2] = format: in vivo, human; conditions: for Calc:meas ratio of peak blood level: elimination curves
[3] = cited from earlier work
[4] = Controlled chamber inhalation exposure: trichloroethene in venous blood; format: in vivo, human; conditions: for Blood model value at t = 0 (Blood, meas): elimination model; for Blood model value at t = 0 (Blood, meas) / Blood model value at t = 240: end of 100 ppmv 4 hr inhalation; for A coefficient (first), blood elimination model / Blood, 1st compartment half-life, elimination / A2 coefficient, blood elimination model: elimination period after 100 ppmv 4 hr inhalation; for Blood model value at t = 240: uptake model; for Blood, 1st compartment half-life, uptake / k1 time constant, blood uptake model: uptake period, 100 ppmv 4 hr inhalation; for k1 time constant, blood uptake model: time in minutes
[5] = all subjects, 100 ppmv 4 hr inhalation and 20 hr purified air
[6] = Subject 108, end of 100 ppmv 4 hr inhalation
[7] = Subject 109, end of 100 ppmv 4 hr inhalation
[8] = Subject 110, end of 100 ppmv 4 hr inhalation
[9] = Subject 208, end of 100 ppmv 4 hr inhalation
[10] = Subject 209, end of 100 ppmv 4 hr inhalation
[11] = Subject 210, end of 100 ppmv 4 hr inhalation
[12] = all individual data point pairs, all subjects
[13] = measured in vitro, ref Fiserova-Bergerova and Diaz (24)

ClC=C(Cl)Cl [trichloroethene]
A2 coefficient, breath elimination model ([1]; Mean ± SE of 6 subjects): 28.67 6.26 micrograms per liter | Breath model value at t = 0 ([1]; Subject 108): 96.6 pg/I | A1 coefficient, breath elimination model ([1]; Subject 108): 76.7 micrograms per liter | A2 coefficient, breath elimination model ([1]; Subject 108): 15.21 micrograms per liter | Breath, 1st compartment half-life, elimination ([1]; Subject 108): 4.40 min | Breath, 2nd compartment half-life, elimination ([1]; Subject 108): 54.15 min | Breath, 3rd compartment half-life, elimination ([1]; Subject 108): 424.98 min | Breath model value at t = 240 ([1]; Subject 108): 105.8 pg/I | Breath, 1st compartment half-life, uptake ([1]; Subject 108): 9.90 min | k1 time constant, breath uptake model ([1]; Subject 108, time in minutes): 0.07004 | Breath model value at t = 0 ([1]; Subject 109): 175.5 pg/I | A1 coefficient, breath elimination model ([1]; Subject 109): 115.8 micrograms per liter | A2 coefficient, breath elimination model ([1]; Subject 109): 53.76 micrograms per liter | Breath, 1st compartment half-life, elimination ([1]; Subject 109): 1.15 min | Breath, 2nd compartment half-life, elimination ([1]; Subject 109): 27.16 min | Breath, 3rd compartment half-life, elimination ([1]; Subject 109): 541.52 min | Breath model value at t = 240 ([1]; Subject 109): 130.3 pg/I | Breath, 1st compartment half-life, uptake ([1]; Subject 109): 9.59 min | k1 time constant, breath uptake model ([1]; Subject 109, time in minutes): 0.07229 | Breath model value at t = 0 ([1]; Subject 110): 162.5 pg/I | A1 coefficient, breath elimination model ([1]; Subject 110): 146.2 micrograms per liter | A2 coefficient, breath elimination model ([1]; Subject 110): 13.41 micrograms per liter | Breath, 1st compartment half-life, elimination ([1]; Subject 110): 4.07 min | Breath, 2nd compartment half-life, elimination ([1]; Subject 110): 88.18 min | Breath, 3rd compartment half-life, elimination ([1]; Subject 110): 1,269.50 min | Breath model value at t = 240 ([1]; Subject 110): 115.2 pg/I | Breath, 1st compartment half-life, uptake ([1]; Subject 110): 39.05 min | k1 time constant, breath uptake model ([1]; Subject 110, time in minutes): 0.01775 | Breath model value at t = 0 ([1]; Subject 208): 129.9 pg/I | A1 coefficient, breath elimination model ([1]; Subject 208): 104.4 micrograms per liter | A2 coefficient, breath elimination model ([1]; Subject 208): 21.21 micrograms per liter | Breath, 1st compartment half-life, elimination ([1]; Subject 208): 0.97 min | Breath, 2nd compartment half-life, elimination ([1]; Subject 208): 29.98 min | Breath, 3rd compartment half-life, elimination ([1]; Subject 208): 396.31 min | Breath model value at t = 240 ([1]; Subject 208): 98.6 pg/I | Breath, 1st compartment half-life, uptake ([1]; Subject 208): 9.92 min | Breath model value at t = 0 ([1]; Subject 209): 161.2 pg/I | A1 coefficient, breath elimination model ([1]; Subject 209): 114.1 micrograms per liter | A2 coefficient, breath elimination model ([1]; Subject 209): 36.96 micrograms per liter | Breath, 1st compartment half-life, elimination ([1]; Subject 209): 2.68 min | Breath, 2nd compartment half-life, elimination ([1]; Subject 209): 21.44 min | Breath, 3rd compartment half-life, elimination ([1]; Subject 209): 262.26 min | Breath model value at t = 240 ([1]; Subject 209): 147.0 pg/I | Breath, 1st compartment half-life, uptake ([1]; Subject 209): 21.42 min | k1 time constant, breath uptake model ([1]; Subject 209, time in minutes): 0.03236 | Uptake curve model plateau coefficient, breath ([1]; Subject 210, Figure 1B): 113 micrograms per liter | k3 time constant, breath elimination model ([1]; Subject 210, Figure 1D, time in minutes): .00061 | Breath model value at t = 0 ([1]; Subject 210): 194.7 pg/I | A1 coefficient, breath elimination model ([1]; Subject 210): 156.8 micrograms per liter and 157 micrograms per liter | A2 coefficient, breath elimination model ([1]; Subject 210): 31.47 micrograms per liter and 31.5 micrograms per liter | Breath, 1st compartment half-life, elimination ([1]; Subject 210): 1.03 min | Breath, 2nd compartment half-life, elimination ([1]; Subject 210): 40.30 min | Breath, 3rd compartment half-life, elimination ([1]; Subject 210): 1,145.89 min | Breath model value at t = 240 ([1]; Subject 210): 113.0 pg/I | Breath, 1st compartment half-life, uptake ([1]; Subject 210): 18.94 min | k1 time constant, breath uptake model ([1]; Subject 210, time in minutes): 0.0366 | Relevant data range for breath samples [1, 5]: <1-150 pg/I | In vivo blood/breath partition coefficient, elimination-only data set ([2]; Mean ± SE of 6 subjects, end of 100 ppmv 4 hr inhalation): 9.69 | Calc:meas ratio of peak blood level ([2]; Subject 108): 0.76 | Blood:breath ratio at end of exposure, calculated from elimination models [2, 6]: 12.11 | Blood:breath ratio at end of exposure, calculated from uptake models [2, 6]: 12.45 | Calc:meas ratio of peak blood level ([2]; Subject 109): 0.75 | Blood:breath ratio at end of exposure, calculated from elimination models [2, 7]: 12.31 | Blood:breath ratio at end of exposure, calculated from uptake models [2, 7]: 14.12 | Calc:meas ratio of peak blood level ([2]; Subject 110): 1.01 | Blood:breath ratio at end of exposure, calculated from elimination models [2, 8]: 9.11 | Blood:breath ratio at end of exposure, calculated from uptake models [2, 8]: 11.96 | Calc:meas ratio of peak blood level ([2]; Subject 208): 0.93 | Blood:breath ratio at end of exposure, calculated from elimination models [2, 9]: 9.89 | Blood:breath ratio at end of exposure, calculated from uptake models [2, 9]: 11.97 | Calc:meas ratio of peak blood level ([2]; Subject 209): 0.90 | Blood:breath ratio at end of exposure, calculated from elimination models [2, 10]: 10.18 | Blood:breath ratio at end of exposure, calculated from uptake models [2, 10]: 10.94 | Calc:meas ratio of peak blood level ([2]; Subject 210): 1.51 | Blood:breath ratio at end of exposure, calculated from elimination models [2, 11]: 6.07 | Blood:breath ratio at end of exposure, calculated from uptake models [2, 11]: 9.99 | Blood/breath regression slope (mean blood/breath ratio), elimination phase [2, 12]: 29.00 | Blood/breath regression slope (mean blood/breath ratio), uptake phase [2, 12]: 10.93 | Inspired trichloroethene excreted through exhalation ([2]; at equilibrium): about 22% | Share of the expired trichloroethene coming from the blood (first) compartment ([2]; elimination phase after 4-hr exposure): about 75% | In vivo blood/breath partition coefficient, overall mean ([2]; experiment time = 0, all subjects, uptake and elimination experiments): 10.8 | Mean time constant for breath relative to its blood counterpart (times as large) ([2]; initial 10 min of elimination, first compartment dominant): 10 | Time constant for breath relative to that for blood (times as large) ([2]; uptake portion of the experiment): about 2.5 | Blood/air partition coefficient [3, 13]: 8.1 | Partition coefficient for lung tissue [3, 13]: 14.0 | Blood/air partition coefficient ([3]; measured in vitro, ref Gargas et al. (22)): 8.11 | Blood/air partition coefficient ([3]; measured in vitro, ref Lindqvist (23)): 15.7 | Blood/breath partition coefficient, accepted literature value ([3]; used in human pharmacokinetic model, ref Allen and Fisher (26)): 9.2 | Pulmonary partition coefficient ([3]; value used, ref Fernandez et al. (25)): 9 | Blood model value at t = 0 (Blood, meas) ([4]; Subject 108): 1,170.1 pg/I and 1,170 pg/I | A coefficient (first), blood elimination model ([4]; Subject 108): 820.7 micrograms per liter | Blood, 1st compartment half-life, elimination ([4]; Subject 108): 23.54 min | Blood model value at t = 240 ([4]; Subject 108): 1,317 pg/I | Blood, 1st compartment half-life, uptake ([4]; Subject 108): 26.60 min | k1 time constant, blood uptake model ([4]; Subject 108): 0.02606 | Blood model value at t = 0 (Blood, meas) ([4]; Subject 109): 2,161.0 pg/I and 2,161 pg/I | A2 coefficient, blood elimination model ([4]; Subject 109): 287.0 micrograms per liter | A coefficient (first), blood elimination model ([4]; Subject 109): 1874 micrograms per liter | Blood, 1st compartment half-life, elimination ([4]; Subject 109): 17.93 min | Blood model value at t = 240 ([4]; Subject 109): 1,839 pg/I | Blood, 1st compartment half-life, uptake ([4]; Subject 109): 64.90 min | k1 time constant, blood uptake model ([4]; Subject 109): 0.01068 | Blood model value at t = 0 (Blood, meas) ([4]; Subject 110): 1,481 pg/I and 1,480.9 pg/I | A2 coefficient, blood elimination model ([4]; Subject 110): 979.1 micrograms per liter | A coefficient (first), blood elimination model ([4]; Subject 110): 501.8 micrograms per liter | Blood, 1st compartment half-life, elimination ([4]; Subject 110): 6.86 min | Blood model value at t = 240 ([4]; Subject 110): 1,377 pg/I | Blood, 1st compartment half-life, uptake ([4]; Subject 110): 45.66 min | k1 time constant, blood uptake model ([4]; Subject 110): 0.01518 | Blood model value at t = 0 (Blood, meas) ([4]; Subject 208): 1,284.6 pg/I and 1,285 pg/I | A2 coefficient, blood elimination model ([4]; Subject 208): 385.1 micrograms per liter | A coefficient (first), blood elimination model ([4]; Subject 208): 899.5 micrograms per liter | Blood, 1st compartment half-life, elimination ([4]; Subject 208): 12.49 min | Blood model value at t = 240 ([4]; Subject 208): 1,181 pg/I | Blood, 1st compartment half-life, uptake ([4]; Subject 208): 24.65 min | k1 time constant, blood uptake model ([4]; Subject 208): 0.02812 | Blood model value at t = 0 (Blood, meas) ([4]; Subject 209): 1,641.0 pg/I and 1,641 pg/I | A2 coefficient, blood elimination model ([4]; Subject 209): 238.0 micrograms per liter | A coefficient (first), blood elimination model ([4]; Subject 209): 1403 micrograms per liter | Blood, 1st compartment half-life, elimination ([4]; Subject 209): 21.74 min | Blood model value at t = 240 ([4]; Subject 209): 1,608 pg/I | Blood, 1st compartment half-life, uptake ([4]; Subject 209): 47.12 min | k1 time constant, blood uptake model ([4]; Subject 209): 0.01471 | Uptake curve model plateau coefficient, blood ([4]; Subject 210, Figure 1A): 1132 micrograms per liter | Blood model value at t = 0 (Blood, meas) ([4]; Subject 210): 1,183 pg/I and 1,182.9 pg/I | A2 coefficient, blood elimination model ([4]; Subject 210): 264.4 micrograms per liter and 264 micrograms per liter | A coefficient (first), blood elimination model ([4]; Subject 210): 918.5 micrograms per liter and 918 micrograms per liter | Blood, 1st compartment half-life, elimination ([4]; Subject 210): 15.39 min | Blood model value at t = 240 ([4]; Subject 210): 1,128 pg/I | Blood, 1st compartment half-life, uptake ([4]; Subject 210): 28.85 min | k1 time constant, blood uptake model ([4]; Subject 210): 0.02403 | Relevant data range for blood samples [4, 5]: 100-1,600 pg/I

Source: article PMC1533168 (Environmental Health Perspectives, 1998)
